Earlier results on two compounds are cited in EP1750675B1, “STABLE ORAL PHARMACEUTICAL COMPOSITIONS OF BUP[…] SALT THEREOF” (Galephar M/F, priority 2004, dated 2005).

One may read the solubility as how much of the substance goes into solution per volume.

For series [1] the following is noted: opioid agonist/antagonist.
The conditions of series [2]: 20°C.

Structures can show the parent of a compound that is named as a salt. Where two headings read alike, the source gives them in different places.

Consider `CO[C@]12CC[C@@]3(C[C@@H]1[C@](C)(O)C(C)(C)C)[C@H]1Cc4ccc(O)c5c4[C@@]3(CCN1CC1CC1)[C@H]2O5` [Buprenorphine], for which, in series [1], the “potency relative to morphine” value is “about forty times as potent as morphine”.

Consider `CO[C@]12CC[C@@]3(C[C@@H]1[C@](C)(O)C(C)(C)C)[C@H]1Cc4ccc(O)c5c4[C@@]3(CCN1CC1CC1)[C@H]2O5` [buprenorphine hydrochloride, Buprenorphine hydrochloride], for which the solubility in series [2] (in cyclohexane) is approximately 0.02 mg/mL; in series [2] (in ethanol) it was approximately 42 mg/mL; in series [2] (in glacial acetic acid), “more than 500 mg/ml”; in series [2] (in water), “about 20 mg/ml”. The stability entry was “stable” (at high temperatures (up to 120°C)); “significant degradation” (in acid and alkaline conditions); “stable” (in neutral solutions (pH 5-7)).
